Laboratory results: patent US20240165282A1, “CONFORMATIONAL CONSTRAINED SOMATOSTATIN RECEPTOR 3 PEPTIDE LIGANDS AND THEIR CONJUGATES AND USES THEREOF” (STARGET PHARMA LTD., priority 2021, published 2024)
*1 amine or outer side, *2 acyl side, *3 side chain or, on linkers, in order; H or OH if unused. Where a SMILES comes first, the peptide text is derived from it. Bridges are numbered along the chain shown (N, C = ends). [ ]: non-standard residue; d: D form. The star is where a group is joined. DOTA = O=C(O)CN1CCN(CC(=O)O)CCN(CC(=O)*)CCN(CC(=O)O)CC1; N(2-mercaptoethyl)Gly = O=C(CN(CCS[*:3])[*:1])[*:2]

Key:
CB2 (h) = CB2 (h) (Homo sapiens, UniProt P34972); assay: Cerep off-target radioligand binding; conditions: 1 micromolar; agonist radioligand; read-out: % Activity: Inhibition of Control Specific Binding
Description: (§1) In this example, off-target interactions for SEQ ID NO.
(§2) The assays were performed by Eurofins Cerep (Celle 1'Evescault, France). Compound binding was calculated as a % inhibition of the binding of a radioactively labeled ligand specific for each target. Compound enzyme inhibition effect was calculated as a % inhibition of control enzyme activity. In each experiment and if applicable, the respective reference compound was tested concurrently with SEQ ID NO. 3, and the data were compared with historical values determined at Eurofins. The experiment was accepted in accordance with Eurofins validation Standard Operating Procedure. Results showing an inhibition (or stimulation for assays run in basal conditions) higher than 50% are considered to represent significant effects of the test compounds.

GR (h) = biological target: T1, GR (h) (Homo sapiens, UniProt P04150); assay: Cerep off-target radioligand binding; conditions: 1 micromolar; agonist radioligand; read-out: % Activity: Inhibition of Control Specific Binding
T1 construct: Eurofins Cerep (contract assay)
T1 sequence (P04150 whole entry): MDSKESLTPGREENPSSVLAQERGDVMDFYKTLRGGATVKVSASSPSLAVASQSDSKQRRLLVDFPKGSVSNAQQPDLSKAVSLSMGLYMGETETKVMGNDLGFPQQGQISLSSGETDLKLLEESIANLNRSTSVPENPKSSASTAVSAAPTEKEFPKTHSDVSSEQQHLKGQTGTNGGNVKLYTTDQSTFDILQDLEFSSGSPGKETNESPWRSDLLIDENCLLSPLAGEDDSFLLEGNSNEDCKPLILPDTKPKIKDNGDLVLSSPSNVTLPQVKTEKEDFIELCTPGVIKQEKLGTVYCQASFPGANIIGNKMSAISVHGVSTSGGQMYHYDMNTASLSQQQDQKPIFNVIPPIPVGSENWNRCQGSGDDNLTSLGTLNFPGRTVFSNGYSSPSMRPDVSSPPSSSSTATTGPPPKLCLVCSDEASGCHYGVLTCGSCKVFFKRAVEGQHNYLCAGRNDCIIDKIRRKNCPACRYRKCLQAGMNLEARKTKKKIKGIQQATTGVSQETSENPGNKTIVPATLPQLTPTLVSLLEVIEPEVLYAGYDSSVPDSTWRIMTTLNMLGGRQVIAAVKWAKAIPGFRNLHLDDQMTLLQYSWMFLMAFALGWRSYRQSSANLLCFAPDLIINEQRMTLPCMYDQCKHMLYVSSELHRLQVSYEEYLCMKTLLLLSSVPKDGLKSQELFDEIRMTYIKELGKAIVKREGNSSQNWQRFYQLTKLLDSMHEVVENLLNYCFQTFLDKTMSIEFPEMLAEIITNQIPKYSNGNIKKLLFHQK
Description: as §1, §2

A2A (h) = A2A (h) (Homo sapiens, UniProt P29274); assay: Cerep off-target radioligand binding; conditions: 1 micromolar; agonist radioligand; read-out: % Activity: Inhibition of Control Specific Binding
Description: as §1, §2

ETA (h) = ETA (h) (Homo sapiens, UniProt P25101); assay: Cerep off-target radioligand binding; conditions: 1 micromolar; agonist radioligand; read-out: % Activity: Inhibition of Control Specific Binding
Description: as §1, §2

D1 (h) = D1 (h) (Homo sapiens, UniProt P21728); assay: Cerep off-target radioligand binding; conditions: 1 micromolar; antagonist radioligand; read-out: % Activity: Inhibition of Control Specific Binding
Description: as §1, §2

5-HT3 (h) = biological target: T2, 5-HT3 (h) (Homo sapiens, UniProt P46098); assay: Cerep off-target radioligand binding; conditions: 1 micromolar; antagonist radioligand; read-out: % Activity: Inhibition of Control Specific Binding
T2 construct: Eurofins Cerep (contract assay)
T2 sequence (P46098 24-478): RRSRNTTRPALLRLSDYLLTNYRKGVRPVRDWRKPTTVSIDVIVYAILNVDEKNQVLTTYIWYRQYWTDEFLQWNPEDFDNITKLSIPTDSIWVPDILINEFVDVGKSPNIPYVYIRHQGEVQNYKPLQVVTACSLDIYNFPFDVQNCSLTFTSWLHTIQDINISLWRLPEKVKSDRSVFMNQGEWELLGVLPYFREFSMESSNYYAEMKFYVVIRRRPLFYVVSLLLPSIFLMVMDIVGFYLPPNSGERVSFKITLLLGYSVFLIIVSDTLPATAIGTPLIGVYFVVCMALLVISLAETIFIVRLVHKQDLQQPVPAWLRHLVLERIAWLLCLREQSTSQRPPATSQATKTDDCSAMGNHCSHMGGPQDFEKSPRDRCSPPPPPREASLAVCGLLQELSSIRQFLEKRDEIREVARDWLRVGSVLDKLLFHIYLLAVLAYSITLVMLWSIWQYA
Description: as §1, §2

CCK1 (CCKA) (h) = CCK1 (CCKA) (h) (Homo sapiens, UniProt P32238); assay: Cerep off-target radioligand binding; conditions: 1 micromolar; agonist radioligand; read-out: % Activity: Inhibition of Control Specific Binding
Description: as §1, §2

alpha 2A (h) = alpha 2A (h) (Homo sapiens, UniProt P08913); assay: Cerep off-target radioligand binding; conditions: 1 micromolar; antagonist radioligand; read-out: % Activity: Inhibition of Control Specific Binding
alpha 2A (h), sequence (P08913 whole entry): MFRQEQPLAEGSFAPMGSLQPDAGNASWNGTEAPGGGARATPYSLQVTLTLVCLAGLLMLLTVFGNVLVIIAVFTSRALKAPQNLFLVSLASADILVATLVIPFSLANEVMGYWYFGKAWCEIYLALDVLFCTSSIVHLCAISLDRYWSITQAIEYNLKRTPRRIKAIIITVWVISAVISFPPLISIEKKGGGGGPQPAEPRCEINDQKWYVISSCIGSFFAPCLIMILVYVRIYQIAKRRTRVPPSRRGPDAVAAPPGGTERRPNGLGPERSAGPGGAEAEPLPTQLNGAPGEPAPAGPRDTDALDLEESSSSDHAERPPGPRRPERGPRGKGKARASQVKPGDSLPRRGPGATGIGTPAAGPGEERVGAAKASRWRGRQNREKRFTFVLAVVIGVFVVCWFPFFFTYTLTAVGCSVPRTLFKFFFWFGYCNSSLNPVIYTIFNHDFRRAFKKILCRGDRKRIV
Description: as §1, §2

beta 2 (h) = beta 2 (h) (Homo sapiens, UniProt P07550); assay: Cerep off-target radioligand binding; conditions: 1 micromolar; antagonist radioligand; read-out: % Activity: Inhibition of Control Specific Binding
Description: as §1, §2

kappa (h) (KOP) = kappa (h) (KOP) (Homo sapiens, UniProt P41145); assay: Cerep off-target radioligand binding; conditions: 1 micromolar; agonist radioligand; read-out: % Activity: Inhibition of Control Specific Binding
Description: as §1, §2

CB1 (h) = CB1 (h) (Homo sapiens, UniProt P21554); assay: Cerep off-target radioligand binding; conditions: 1 micromolar; agonist radioligand; read-out: % Activity: Inhibition of Control Specific Binding
Description: as §1, §2

M3 (h) = M3 (h) (Homo sapiens, UniProt P20309); assay: Cerep off-target radioligand binding; conditions: 1 micromolar; antagonist radioligand; read-out: % Activity: Inhibition of Control Specific Binding
Description: as §1, §2

5-HT1A (h) = biological target: T3, 5-HT1A (h) (Homo sapiens, UniProt P08908); assay: Cerep off-target radioligand binding; conditions: 1 micromolar; agonist radioligand; read-out: % Activity: Inhibition of Control Specific Binding
T3 construct: Eurofins Cerep (contract assay)
Description: as §1, §2

5-HT2B (h) = biological target: T4, 5-HT2B (h) (Homo sapiens, UniProt P41595); assay: Cerep off-target radioligand binding; conditions: 1 micromolar; agonist radioligand; read-out: % Activity: Inhibition of Control Specific Binding
T4 construct: Eurofins Cerep (contract assay)
Description: as §1, §2

H2 (h) = H2 (h) (Homo sapiens, UniProt P25021); assay: Cerep off-target radioligand binding; conditions: 1 micromolar; antagonist radioligand; read-out: % Activity: Inhibition of Control Specific Binding
Description: as §1, §2

alpha 1A (h) = alpha 1A (h) (Homo sapiens, UniProt P35348); assay: Cerep off-target radioligand binding; conditions: 1 micromolar; antagonist radioligand; read-out: % Activity: Inhibition of Control Specific Binding
Description: as §1, §2

beta 1 (h) = beta 1 (h) (Homo sapiens, UniProt P08588); assay: Cerep off-target radioligand binding; conditions: 1 micromolar; agonist radioligand; read-out: % Activity: Inhibition of Control Specific Binding
beta 1 (h), sequence (P08588 whole entry): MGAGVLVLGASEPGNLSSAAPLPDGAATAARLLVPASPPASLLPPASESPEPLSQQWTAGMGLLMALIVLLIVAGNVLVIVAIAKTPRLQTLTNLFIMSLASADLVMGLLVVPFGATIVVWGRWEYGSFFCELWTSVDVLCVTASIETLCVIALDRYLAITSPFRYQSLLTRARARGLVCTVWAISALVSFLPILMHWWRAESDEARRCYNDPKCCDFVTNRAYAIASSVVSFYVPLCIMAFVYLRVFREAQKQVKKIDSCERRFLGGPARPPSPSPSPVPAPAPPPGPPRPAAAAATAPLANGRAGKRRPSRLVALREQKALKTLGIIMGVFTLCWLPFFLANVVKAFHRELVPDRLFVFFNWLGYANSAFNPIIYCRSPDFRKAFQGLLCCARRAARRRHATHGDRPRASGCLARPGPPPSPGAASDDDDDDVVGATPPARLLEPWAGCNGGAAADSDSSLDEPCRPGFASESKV
Description: as §1, §2

V1a (h) = biological target: T5, V1a (h) (Homo sapiens, UniProt P37288); assay: Cerep off-target radioligand binding; conditions: 1 micromolar; agonist radioligand; read-out: % Activity: Inhibition of Control Specific Binding
T5 construct: Eurofins Cerep (contract assay)
Description: as §1, §2

5-HT2A (h) = biological target: T6, 5-HT2A (h) (Homo sapiens, UniProt P28223); assay: Cerep off-target radioligand binding; conditions: 1 micromolar; agonist radioligand; read-out: % Activity: Inhibition of Control Specific Binding
T6 construct: Eurofins Cerep (contract assay)
Description: as §1, §2

delta (DOP) (h) = delta (DOP) (h) (Homo sapiens, UniProt P41143); assay: Cerep off-target radioligand binding; conditions: 1 micromolar; agonist radioligand; read-out: % Activity: Inhibition of Control Specific Binding
Description: as §1, §2

[1] = biological target: N neuronal alpha 4beta 2 (h) (Homo sapiens, UniProt P17787+P43681); assay: Cerep off-target radioligand binding; conditions: 1 micromolar; agonist radioligand; read-out: % Activity: Inhibition of Control Specific Binding
N neuronal alpha 4beta 2 (h), sequence (P43681 29-627 limits assumed): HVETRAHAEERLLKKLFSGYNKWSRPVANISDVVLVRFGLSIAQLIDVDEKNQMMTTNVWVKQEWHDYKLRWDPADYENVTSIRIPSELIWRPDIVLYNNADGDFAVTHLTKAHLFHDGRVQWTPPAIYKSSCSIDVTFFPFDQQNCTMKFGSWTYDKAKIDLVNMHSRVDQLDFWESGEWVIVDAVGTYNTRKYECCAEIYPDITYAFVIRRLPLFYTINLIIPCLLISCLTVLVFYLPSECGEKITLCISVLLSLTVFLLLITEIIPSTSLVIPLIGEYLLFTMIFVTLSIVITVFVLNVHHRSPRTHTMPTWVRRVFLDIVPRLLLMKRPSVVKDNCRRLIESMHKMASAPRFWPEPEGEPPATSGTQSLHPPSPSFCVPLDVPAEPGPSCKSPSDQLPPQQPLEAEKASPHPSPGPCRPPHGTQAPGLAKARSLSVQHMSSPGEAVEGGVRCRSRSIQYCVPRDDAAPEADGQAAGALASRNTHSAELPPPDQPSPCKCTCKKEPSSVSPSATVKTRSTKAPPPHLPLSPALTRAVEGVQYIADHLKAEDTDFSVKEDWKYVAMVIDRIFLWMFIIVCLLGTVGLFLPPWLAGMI
N neuronal alpha 4beta 2 (h), sequence (P17787 26-502): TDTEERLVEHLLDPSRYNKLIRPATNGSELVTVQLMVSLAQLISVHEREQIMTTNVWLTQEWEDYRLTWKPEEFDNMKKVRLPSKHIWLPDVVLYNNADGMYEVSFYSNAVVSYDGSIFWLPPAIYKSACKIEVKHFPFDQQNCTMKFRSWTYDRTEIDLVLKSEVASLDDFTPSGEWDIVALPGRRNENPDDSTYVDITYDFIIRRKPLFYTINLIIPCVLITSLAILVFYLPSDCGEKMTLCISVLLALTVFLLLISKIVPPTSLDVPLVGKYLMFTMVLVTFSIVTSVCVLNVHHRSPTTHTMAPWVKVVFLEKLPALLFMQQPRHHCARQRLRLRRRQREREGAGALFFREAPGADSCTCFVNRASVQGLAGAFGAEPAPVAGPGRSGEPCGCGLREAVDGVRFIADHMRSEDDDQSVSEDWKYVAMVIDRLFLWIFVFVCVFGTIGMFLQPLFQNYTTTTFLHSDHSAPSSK
Description: as §1, §2

[2] = biological target: T7, Potassium Channel hERG (human) (Homo sapiens, UniProt Q12809); assay: Cerep off-target radioligand binding; conditions: [3H] Dofetilide, read-out: % Activity: Inhibition of Control Specific Binding
T7 construct: Eurofins Cerep (contract assay)
Description: as §1, §2

dopamine transporter (h) = biological target: T8, dopamine transporter (h) (Homo sapiens, UniProt Q01959); assay: Cerep off-target radioligand binding; conditions: 1 micromolar; antagonist radioligand; read-out: % Activity: Inhibition of Control Specific Binding
T8 construct: Eurofins Cerep (contract assay)
Description: as §1, §2

D2S (h) = D2S (h) (Homo sapiens, UniProt P14416); assay: Cerep off-target radioligand binding; conditions: 1 micromolar; agonist radioligand; read-out: % Activity: Inhibition of Control Specific Binding
D2S (h), sequence (P14416 1-414 isoform P14416-2): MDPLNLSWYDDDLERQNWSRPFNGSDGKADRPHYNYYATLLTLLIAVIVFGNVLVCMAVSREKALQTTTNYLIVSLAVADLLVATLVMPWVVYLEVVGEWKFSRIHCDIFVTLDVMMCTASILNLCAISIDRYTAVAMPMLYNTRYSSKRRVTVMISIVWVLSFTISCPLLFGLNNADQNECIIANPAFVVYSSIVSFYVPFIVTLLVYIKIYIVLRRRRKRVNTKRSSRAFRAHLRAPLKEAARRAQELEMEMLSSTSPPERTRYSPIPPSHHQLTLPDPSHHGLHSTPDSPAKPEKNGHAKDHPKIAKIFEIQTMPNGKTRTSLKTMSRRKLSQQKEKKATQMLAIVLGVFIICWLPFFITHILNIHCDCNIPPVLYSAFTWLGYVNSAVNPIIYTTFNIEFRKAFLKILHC
Description: as §1, §2

mu (MOP) (h) = biological target: T9, mu (MOP) (h) (Homo sapiens, UniProt P35372); assay: Cerep off-target radioligand binding; conditions: 1 micromolar; agonist radioligand; read-out: % Activity: Inhibition of Control Specific Binding
T9 construct: Eurofins Cerep (contract assay)
T9 sequence (P35372 whole entry): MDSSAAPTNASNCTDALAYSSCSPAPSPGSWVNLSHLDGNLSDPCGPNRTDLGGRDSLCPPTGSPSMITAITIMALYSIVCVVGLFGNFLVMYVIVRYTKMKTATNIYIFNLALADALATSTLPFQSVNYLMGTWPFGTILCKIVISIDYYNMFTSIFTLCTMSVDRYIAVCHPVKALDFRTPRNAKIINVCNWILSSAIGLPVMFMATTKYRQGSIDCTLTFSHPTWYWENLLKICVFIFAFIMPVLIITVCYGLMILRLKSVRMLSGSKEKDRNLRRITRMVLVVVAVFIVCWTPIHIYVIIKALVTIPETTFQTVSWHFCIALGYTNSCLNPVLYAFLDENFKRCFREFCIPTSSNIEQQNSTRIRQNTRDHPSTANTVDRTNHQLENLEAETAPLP
Description: as §1, §2

M2 (h) = M2 (h) (Homo sapiens, UniProt P08172); assay: Cerep off-target radioligand binding; conditions: 1 micromolar; antagonist radioligand; read-out: % Activity: Inhibition of Control Specific Binding
M2 (h), sequence (P08172 whole entry): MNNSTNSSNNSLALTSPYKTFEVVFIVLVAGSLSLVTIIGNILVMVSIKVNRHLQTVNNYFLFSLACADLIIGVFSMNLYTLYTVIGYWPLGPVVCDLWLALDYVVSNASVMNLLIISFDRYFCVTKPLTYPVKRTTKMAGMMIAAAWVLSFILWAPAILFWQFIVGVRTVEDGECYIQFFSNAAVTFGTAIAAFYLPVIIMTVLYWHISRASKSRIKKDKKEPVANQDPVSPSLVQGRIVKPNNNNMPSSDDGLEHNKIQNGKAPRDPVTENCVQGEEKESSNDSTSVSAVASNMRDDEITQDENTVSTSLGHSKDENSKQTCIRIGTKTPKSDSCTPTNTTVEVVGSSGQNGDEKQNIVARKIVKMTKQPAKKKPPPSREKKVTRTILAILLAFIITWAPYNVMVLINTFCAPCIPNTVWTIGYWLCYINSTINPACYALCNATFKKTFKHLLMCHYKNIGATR
Description: as §1, §2

5-HT1B (h) = biological target: T10, 5-HT1B (h) (Homo sapiens, UniProt P28222); assay: Cerep off-target radioligand binding; conditions: 1 micromolar; antagonist radioligand; read-out: % Activity: Inhibition of Control Specific Binding
T10 construct: Eurofins Cerep (contract assay)
Description: as §1, §2

hSSTR-4 = biological target: T11, hSSTR-4 (Homo sapiens, UniProt P31391); assay: Radioligand binding, displacement of 125I-Tyr11-SRIF-14
T11 construct: host or cells: Chem-1 (Rat ChemiSCREEN) cells, membrane preparation
T11 sequence (P31391 whole entry): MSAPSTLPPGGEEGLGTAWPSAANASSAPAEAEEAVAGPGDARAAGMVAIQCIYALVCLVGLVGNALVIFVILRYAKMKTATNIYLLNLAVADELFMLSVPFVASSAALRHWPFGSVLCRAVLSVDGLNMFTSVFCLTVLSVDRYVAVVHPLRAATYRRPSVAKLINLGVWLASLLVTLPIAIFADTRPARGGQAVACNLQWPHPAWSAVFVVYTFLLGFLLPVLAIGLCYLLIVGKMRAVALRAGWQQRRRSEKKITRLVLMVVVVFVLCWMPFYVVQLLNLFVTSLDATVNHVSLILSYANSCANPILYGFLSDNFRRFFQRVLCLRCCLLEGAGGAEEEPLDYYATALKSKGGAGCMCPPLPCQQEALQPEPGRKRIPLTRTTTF
In short: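 Assays ran at 25 °C in 25 mM HEPES pH 7.4 with 5 mM MgCl2, 1 mM CaCl2, 0.1% BSA and 1% DMSO. Filter-bound radioactivity gave IC50 by nonlinear least-squares regression.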

For `C[C@@H](O)[C@@H]1NC(=O)[C@H](CCCCN)NC(=O)[C@@H](Cc2c[nH]c3ccccc23)NC(=O)[C@H](Cc2ccccc2)NC(=O)[C@@H](NC(=O)[C@H](CCCNC(=N)N)NC(=O)[C@@H](Cc2ccccc2)NC(=O)CN2CCN(CC(=O)O)CCN(CC(=O)O)CCN(CC(=O)O)CC2)CSSCCN(CC(N)=O)C(=O)[C@H](Cc2ccccc2)NC1=O` [SEQ ID NO: 3, DOTA-D-Phe^1-Arg^2-Cys^3-Phe^4-D-Trp^5-Lys^6-Thr^7-Phe^8-NTEG^9-NH2 cyclo 3-9] ({DOTA}-[dF]RCF[dW]KTF[N(2-mercaptoethyl)Gly]-NH2; disulfide 3-9), the inhibition at 1 µM (CB2 (h)) was -1%, the inhibition at 1 µM (GR (h)) was -10% and the inhibition at 1 µM (A2A (h)) was 0%. The inhibition at 1 µM (ETA (h)) was -3%, the inhibition at 1 µM (D1 (h)) was -1% and the inhibition at 1 µM (5-HT3 (h)) was 1%. It also gave an inhibition at 1 µM (CCK1 (CCKA) (h)) of -15%, an inhibition at 1 µM (alpha 2A (h)) of 2% and an inhibition at 1 µM (beta 2 (h)) of -6%. It also gave an inhibition at 1 µM (kappa (h) (KOP)) of 10%, an inhibition at 1 µM (CB1 (h)) of 1% and an inhibition at 1 µM (M3 (h)) of -7%. The inhibition at 1 µM (5-HT1A (h)) was -3%, the inhibition at 1 µM (5-HT2B (h)) was -31% and the inhibition at 1 µM (H2 (h)) was -7%. For the same molecule, the inhibition at 1 µM (alpha 1A (h)) was -1%, the inhibition at 1 µM (beta 1 (h)) was 5% and the inhibition at 1 µM (V1a (h)) was 0%. It also gave an inhibition at 1 µM (5-HT2A (h)) of -2%, an inhibition at 1 µM (delta (DOP) (h)) of 10% and an inhibition at 1 µM [1] of -4%. It also gave an inhibition at 1 micromolar [2] of -9%, an inhibition at 1 µM (dopamine transporter (h)) of 12% and an inhibition at 1 µM (D2S (h)) of 3%. It also gave an inhibition at 1 µM (mu (MOP) (h)) of 8%, an inhibition at 1 µM (M2 (h)) of -4% and an inhibition at 1 µM (5-HT1B (h)) of 1%. The IC50 (hSSTR-4) was > 1000 nM, the Ki (hSSTR-4) was > 1000 nM and the “Hill coefficient (nH)” value (hSSTR-4; hSSTR-4) was 1.14.
